Measured values taken from US20160257697A1, “THIOPHENE-SUBSTITUTED TETRACYCLIC COMPOUNDS AND METHODS OFUSE THEREOF FOR THE TREATMENT OF VIRAL DISEASES” (priority 2013, published 2016).
Where two headings read alike, the source gives them in different places.

Experiments:
Test in all cases: microbe, parasite or virus in culture
Assay type in all cases: cell-based, Hepatitis C virus (HCV)
HCV replicon 1A = conditions: Replicon Assay A
Method in brief: (§1)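 Cells seeded 2000/well + compound; 0.5% DMSO, 5% FBS; harvest day 3, lyse. Multiplex TaqMan RT-PCR for replicon (Neo probe) and cyclophilin RNA; amounts from Ct vs log(ng) linear regression of replicon total RNA standards.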

HCV replicon 1AY93H = conditions: Replicon Assay A
Method in brief: as §1

HCV replicon 2B = conditions: Replicon Assay A
Method in brief: as §1

HCV replicon 1B = conditions: Replicon Assay B
Method: In an alternate assay (“Replicon Assay B”), 1000 cells were seeded per well in a 384-well collagen coated black plate from Greiner bio-one (Cat #781946) in 5% FBS. Inhibitors of this invention were added at 24 h post-seeding, and the plates were incubated for 3 days. Cells were subsequently lysed with Qiagen lysis buffer (Cat #1062731) to extract the RNA. HCV replicon RNA level was measured by real-time PCR using the RNA-to-CT kit from Applied Biosystem (Cat #4392656) and genotype-specific primers and probes. The amplicon was located within NS5B. […] (SEQ. ID NO. 2); the probe sequence was FAM-labeled […] (SEQ. ID NO. 3).
The real-time RT-PCR reactions were run on ABI PRISM 7900HT or Viia7 Sequence Detection System using the following program: 48° C. for 30 minutes, 95° C. for 10 minutes, 40 cycles of 95° C. for 15 sec, 60° C. for 1 minutes.
Data for replicons 1A, 1AY93H and 2B were obtained using Replicon Assay A and data for replicons 1AQ30D and 1B were obtained using Replicon Assay B.

[1] = read-out: 1A Y93H IC50, replicon 1AY93H
[2] = read-out: 1A Y93H IC50, HCV replicon 1A Y93H
[3] = read-out: 2B IC50, HCV replicon 2B
[4] = Hepatitis C virus, HCV replicon 1B
[5] = HCV replicon 1A Y93H, read-out: 1A Y93H IC50
[6] = HCV replicon 2B, read-out: 2B IC50
[7] = Hepatitis C virus, HCV replicon 1A
[8] = Hepatitis C virus, read-out: 2B IC50, HCV replicon 2B
[9] = Hepatitis C virus, read-out: 1A Y93H IC50, HCV replicon 1A Y93H

COC(=O)NC(C(=O)N1CCC[C@H]1c1ncc(-c2ccc3c(c2)cc2n3C(c3ccc(C4CC4)s3)Oc3cc(-c4cnc([C@@H]5CCCN5C(=O)[C@@H](NC(=O)OC)C(C)C)[nH]4)cc(F)c3-2)[nH]1)C1CN(C(=O)OC)C1 (single isomer, unassigned) [Compound 228] was tested, and the IC50 (HCV replicon 1A; replicon 1A) was 0.002 nM, the IC50 (HCV replicon 1AY93H; [1]) was 0.5 nM and the IC50 (HCV replicon 2B; read-out: 2B IC50, replicon 2B) was 0.47 nM. The IC50 (HCV replicon 1B; replicon 1B) was 0.0038 nM.
In the case of COC(=O)N[C@H](C(=O)N1CCC[C@H]1c1ncc(-c2ccc3c(c2)OC(c2ccc(C4CC4)s2)n2c-3cc3cc(-c4cnc([C@@H]5CCCN5C(=O)[C@@H](NC(=O)OC)C(C)C)[nH]4)ccc32)[nH]1)C(C)C (single isomer, unassigned) [Compound 704], the IC50 (HCV replicon 1A; HCV replicon 1A) is reported as 0.0029 nM, the IC50 (HCV replicon 1AY93H; [2]) is reported as 0.45 nM and the IC50 (HCV replicon 2B; [3]) is reported as 1.07 nM. For the same compound, the IC50 (HCV replicon 1B; [4]) was 0.0029 nM.
COC(=O)N[C@H](C(=O)N1CCC[C@H]1c1ncc(-c2cc(F)c3c(c2)OC(c2ccc(C4CC4)s2)n2c-3c(C)c3cc(-c4cnc([C@@H]5CCCN5C(=O)[C@@H](NC(=O)OC)C(C)C)[nH]4)ccc32)[nH]1)C(C)C (single isomer, unassigned) [Compound 841] showed an IC50 (HCV replicon 1A; HCV replicon 1A) of 0.0026 nM, an IC50 (HCV replicon 1AY93H; [5]) of 0.849 nM and an IC50 (HCV replicon 2B; [6]) of 0.523 nM. It also gave an IC50 (HCV replicon 1B; HCV replicon 1B) of 0.0017 nM.
COC(=O)N[C@H](C(=O)N1C[C@H](F)C[C@H]1c1cnc(-c2ccc3c(c2)cc2n3C(c3cc4ccccc4s3)Oc3cc(-c4cnc([C@@H]5C[C@@H](F)CN5C(=O)[C@@H](NC(=O)OC)C(C)C)[nH]4)ccc3-2)[nH]1)C(C)C (single isomer, unassigned) [Compound 806] gave an IC50 (HCV replicon 1A; HCV replicon 1A) of 0.041 nM, an IC50 (HCV replicon 1AY93H; [2]) of 0.023 nM and an IC50 (HCV replicon 2B; [3]) of 42.9 nM. The IC50 (HCV replicon 1B; HCV replicon 1B) was 0.009 nM.
CCc1ccc(C2Oc3cc(-c4cnc([C@@H]5CCCN5C(=O)C(NC(=O)OC)C5CCOC(C)(C)C5)[nH]4)cc(F)c3-c3cc4cc(-c5cnc([C@@H]6CCCN6C(=O)C(NC(=O)OC)C6CCOC(C)(C)C6)[nH]5)ccc4n32)s1 (single isomer, unassigned) [Compound 291] showed an IC50 (HCV replicon 1A; replicon 1A) of 0.0024 nM, an IC50 (HCV replicon 1AY93H; [1]) of 0.28 nM and an IC50 (HCV replicon 2B; read-out: 2B IC50, replicon 2B) of 0.028 nM. For the same compound, the IC50 (HCV replicon 1B; Hepatitis C virus, replicon 1B) was 0.0023 nM.
CCc1ccc(C2Oc3cc(-c4cnc([C@@H]5CCCN5C(=O)[C@@H](NC(=O)OC)C(C)C)[nH]4)cc(F)c3-c3cc4cc(-c5cnc([C@@H]6CCCN6C(=O)C(NC(=O)OC)C6C[C@@H](C)O[C@@H](C)C6)[nH]5)ccc4n32)s1 (single isomer, unassigned) [Compound 143] was tested, and the IC50 (HCV replicon 1A; replicon 1A) was 0.111 nM and the IC50 (HCV replicon 1B; Hepatitis C virus, replicon 1B) was 0.0059 nM.
COC(=O)NC(C(=O)N1CCC[C@H]1c1ncc(-c2ccc3c(c2)cc2n3C(c3ccc(C4CC4)s3)Oc3cc(-c4cnc([C@@H]5CCCN5C(=O)[C@@H](NC(=O)OC)C(C)C)[nH]4)cc(F)c3-2)[nH]1)C1CCOC(C)(C)C1 (single isomer, unassigned) [Compound 225] gave an IC50 (HCV replicon 1A; replicon 1A) of 0.0477 nM, an IC50 (HCV replicon 2B; read-out: 2B IC50, replicon 2B) of 13.7 nM and an IC50 (HCV replicon 1B; Hepatitis C virus, replicon 1B) of 0.0102 nM.
In the case of COC(=O)N[C@H](C(=O)N1CCC[C@H]1c1ncc(-c2cc(F)c3c(c2)OC(c2ccc(C4CC4)s2)n2c-3c(C)c3cc(-c4cnc([C@@H]5CCCN5C(=O)[C@@H](NC(=O)OC)C(C)C)[nH]4)ccc32)[nH]1)C(C)C (single isomer, unassigned) [Compound 842], the IC50 (HCV replicon 1A; HCV replicon 1A) is reported as 0.0066 nM and the IC50 (HCV replicon 1B; HCV replicon 1B) is reported as 0.0014 nM.
For COC(=O)N[C@H](C(=O)N1CCC[C@H]1c1ncc(-c2cc3c4c(c2)OC(c2ccc(Cl)s2)n2c-4c(c4cc(-c5cnc([C@@H]6CCCN6C(=O)[C@@H](NC(=O)OC)C(C)C)[nH]5)ccc42)CC3)[nH]1)C(C)C (some centres unmarked) [Compound 834], the IC50 (HCV replicon 1A; [7]) was 0.0842 nM, the IC50 (HCV replicon 2B; [8]) was 16.7 nM and the IC50 (HCV replicon 1B; [4]) was 0.0488 nM.
With CCc1c2n(c3ccc(-c4cnc([C@@H]5CCCN5C(=O)[C@@H](NC(=O)OC)C(C)C)[nH]4)cc13)C(c1ccc(Cl)s1)Oc1cc(-c3cnc([C@@H]4CCCN4C(=O)[C@@H](NC(=O)OC)C(C)C)[nH]3)cc(F)c1-2 (some centres unmarked) [Compound 837] the IC50 (HCV replicon 1A; [7]) was 0.0025 nM, the IC50 (HCV replicon 1AY93H; [9]) was 1.52 nM and the IC50 (HCV replicon 1B; [4]) was 0.0019 nM.
With CCc1c2n(c3ccc(-c4cnc(C5CCCN5C(=O)C(NC(=O)OC)C(C)C)[nH]4)cc13)C(c1ccc(C3CC3)s1)Oc1cc(-c3cnc(C4CCCN4C(=O)C(NC(=O)OC)C(C)C)[nH]3)cc(F)c1-2 (single isomer, unassigned) [Compound 839] the IC50 (HCV replicon 1AY93H; [5]) was 0.865 nM, the IC50 (HCV replicon 2B; [6]) was 0.971 nM and the IC50 (HCV replicon 1B; HCV replicon 1B) was 0.0023 nM.
For CCc1c2n(c3ccc(-c4cnc(C5CCCN5C(=O)C(NC(=O)OC)C(C)C)[nH]4)cc13)C(c1ccc(C3CC3)s1)Oc1cc(-c3cnc(C4CCCN4C(=O)C(NC(=O)OC)C(C)C)[nH]3)cc(F)c1-2 (single isomer, unassigned) [Compound 838], the IC50 (HCV replicon 1A; HCV replicon 1A) was 0.0055 nM and the IC50 (HCV replicon 1B; HCV replicon 1B) was 0.0013 nM.
For COC(=O)NC(C(=O)N1CCC[C@H]1c1ncc(-c2cc(F)c3c(c2)OC(c2ccc(C(C)C)s2)n2c-3cc3cc(-c4cnc([C@@H]5CCCN5C(=O)[C@@H](NC(=O)OC)C(C)C)[nH]4)ccc32)[nH]1)C1CCOC(C)(C)C1 (single isomer, unassigned) [Compound 246], the IC50 (HCV replicon 1A; Hepatitis C virus, replicon 1A) was 0.0011 nM, the IC50 (HCV replicon 1AY93H; Hepatitis C virus, read-out: 1A Y93H IC50 (nM), replicon 1AY93H) was 0.58 nM and the IC50 (HCV replicon 2B; Hepatitis C virus, read-out: 2B IC50 (nM), replicon 2B) was 0.27 nM.
For COC(=O)N[C@H](C(=O)N1CCC[C@H]1c1ncc(-c2ccc3c(c2)OC(c2ccc(C4CC4)s2)n2c-3cc3cc(-c4cnc([C@@H]5CCCN5C(=O)[C@@H](NC(=O)OC)C5CCOCC5)[nH]4)ccc32)[nH]1)C(C)C (single isomer, unassigned) [Compound 334], the IC50 (HCV replicon 1A; Hepatitis C virus, replicon 1A) was 0.0024 nM, the IC50 (HCV replicon 1AY93H; [1]) was 0.159 nM and the IC50 (HCV replicon 2B; read-out: 2B IC50, replicon 2B) was 0.0768 nM.
CCc1ccc(C2Oc3cc(-c4cnc([C@@H]5CCCN5C(=O)[C@@H](NC(=O)OC)C(C)C)[nH]4)cc(C)c3-c3cc4cc(-c5cnc([C@@H]6CCCN6C(=O)C(NC(=O)OC)C6C[C@@H](C)O[C@@H](C)C6)[nH]5)ccc4n32)s1 (single isomer, unassigned) [Compound 544] gave an IC50 (HCV replicon 1A; HCV replicon 1A) of 0.00833 nM, an IC50 (HCV replicon 1AY93H; [2]) of 0.29 nM and an IC50 (HCV replicon 2B; [3]) of 0.0319 nM.
With COC(=O)N[C@H](C(=O)N1CCC[C@H]1c1nc(-c2cc(F)c3c(c2)OC(c2ccc(C4CC4)s2)n2c-3cc3cc(-c4c[nH]c([C@@H]5C[C@H]6C[C@H]6N5C(=O)[C@@H](NC(=O)OC)C(C)C)n4)ccc32)c[nH]1)C(C)C (single isomer, unassigned) [Compound 719] the IC50 (HCV replicon 1A; HCV replicon 1A) was 0.01 nM, the IC50 (HCV replicon 1AY93H; [2]) was 0.032 nM and the IC50 (HCV replicon 2B; [3]) was 0.036 nM.
In the case of COC(=O)N[C@H](C(=O)N1C2CC2C[C@H]1c1ncc(-c2cc(F)c3c(c2)OC(c2ccc(C4CC4)s2)n2c-3cc3cc(-c4cnc([C@@H]5CCCN5C(=O)[C@@H](NC(=O)OC)C5C[C@@H](C)O[C@@H](C)C5)[nH]4)ccc32)[nH]1)C(C)C (single isomer, unassigned) [Compound 556], the IC50 (HCV replicon 1A; HCV replicon 1A) is reported as 0.0512 nM, the IC50 (HCV replicon 1AY93H; [2]) is reported as 0.251 nM and the IC50 (HCV replicon 2B; [3]) is reported as 0.976 nM.
For CC[C@@H]1CC(C(NC(=O)OC)C(=O)N2CCC[C@H]2c2ncc(-c3ccc4c(c3)cc3n4C(c4ccc(C5CC5)s4)Oc4cc(-c5cnc([C@@H]6CCCN6C(=O)[C@@H](NC(=O)OC)C(C)C)[nH]5)cc(F)c4-3)[nH]2)C[C@H](CC)O1 (single isomer, unassigned) [Compound 290], the IC50 (HCV replicon 1A; replicon 1A) was 0.0011 nM, the IC50 (HCV replicon 1AY93H; [1]) was 0.19 nM and the IC50 (HCV replicon 2B; read-out: 2B IC50, replicon 2B) was 0.34 nM.
With CCc1ccc(C2Oc3cc(-c4cnc([C@@H]5CCCN5C(=O)[C@@H](NC(=O)OC)C(C)C)[nH]4)cc(F)c3-c3cc4cc(-c5cnc([C@@H]6C[C@H]7C[C@H]7N6C(=O)C(NC(=O)OC)C6CCOC(C)(C)C6)[nH]5)ccc4n32)s1 (single isomer, unassigned) [Compound 202] the IC50 (HCV replicon 1A; replicon 1A) was 0.0013 nM, the IC50 (HCV replicon 1AY93H; [1]) was 0.49 nM and the IC50 (HCV replicon 2B; read-out: 2B IC50, replicon 2B) was 3.31 nM.
With COC(=O)N[C@H](C(=O)N1C[C@H](F)C[C@H]1c1ncc(-c2ccc3c(c2)OC(c2cc(C)c(C)s2)n2c-3cc3cc(-c4c[nH]c([C@@H]5C[C@@H](F)CN5C(=O)[C@@H](NC(=O)OC)C5CCOCC5)n4)ccc32)[nH]1)C(C)C (mixture of isomers) [Compound 725] the IC50 (HCV replicon 1A; [7]) was 0.035 nM, the IC50 (HCV replicon 1AY93H; [9]) was 0.058 nM and the IC50 (HCV replicon 2B; [8]) was 0.76 nM.
